According to ChEMBL document CHEMBL1201862, “PubChem BioAssay data set” (2004):
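Compound exposure: 48 hours, 5 concentrations, 96-well plates. The concentration for 50% growth inhibition is given as GI50.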 Active and inactive are the calls of the source. Cut-off read from the data, not from the text of the source: active = GI50 up to about 1.1 µM and inactive = higher.

Tests used:
Assay in all cases: DTP human tumour cell line panel, 48 h
[1] = tested on: HOP-92
[2] = tested on: NCI-H226
[3] = tested on: COLO 205
[4] = tested on: MDA-MB-435
[5] = tested on: OVCAR-5
[6] = tested on: HCT-15
[7] = tested on: NCI-H460
[8] = tested on: CAKI-1
[9] = tested on: SF-295
[10] = tested on: SK-MEL-5
[11] = tested on: SW-620
[12] = tested on: KM12
[13] = tested on: PC-3
[14] = tested on: HCT-116
[15] = tested on: BT-549
[16] = tested on: MDA-N
[17] = tested on: SR
[18] = tested on: M14
[19] = tested on: RXF 393
[20] = tested on: EKVX
[21] = tested on: Malme-3M
[22] = tested on: Hs-578T
[23] = tested on: SK-MEL-2
[24] = tested on: MOLT-4
[25] = tested on: MDA-MB-231
[26] = tested on: K562
[27] = tested on: SK-MEL-28
[28] = tested on: HL-60
[29] = tested on: OVCAR-4
[30] = tested on: SF-268
[31] = tested on: SK-OV-3
[32] = tested on: A498
[33] = tested on: NCI-H522
[34] = tested on: IGROV-1
[35] = tested on: RPMI-8226
[36] = tested on: TK-10
[37] = tested on: SN12C
[38] = tested on: SF-539
[39] = tested on: T47D
[40] = tested on: HT-29
[41] = tested on: U-251
[42] = tested on: SNB-75
[43] = tested on: OVCAR-8
[44] = tested on: MCF7
[45] = tested on: ACHN
[46] = tested on: NCI/ADR-RES
[47] = tested on: SNB-19
[48] = tested on: UO-31
[49] = tested on: HOP-62
[50] = tested on: NCI-H23
[51] = tested on: 786-0
[52] = tested on: DU-145
[53] = tested on: LOX IMVI
[54] = tested on: OVCAR-3
[55] = tested on: A549
[56] = tested on: UACC-257
[57] = tested on: CCRF-CEM
[58] = tested on: UACC-62

SMILES: COc1ccc(/C=N/c2ccc(-c3nc4ccccc4[nH]3)cc2)cc1OC
- GI50 [1]: 47 µM (inactive)
- GI50 [2]: > 100 µM (inactive)
- GI50 [3]: > 100 µM (inactive)
- GI50 [4]: > 100 µM (inactive)
- GI50 [5]: > 100 µM (inactive)
- GI50 [6]: > 100 µM
- GI50 [7]: > 100 µM (inactive)
- GI50 [8]: > 100 µM (inactive)
- GI50 [9]: > 100 µM (inactive)
- GI50 [10]: > 100 µM (inactive)
- GI50 [11]: > 100 µM (inactive)
- GI50 [12]: > 100 µM (inactive)
- GI50 [13]: > 100 µM (inactive)
- GI50 [14]: > 100 µM (inactive)
- GI50 [15]: 89.1 µM (inactive)
- GI50 [16]: > 100 µM (inactive)
- GI50 [17]: 81.7 µM (inactive)
- GI50 [18]: > 100 µM (inactive)
- GI50 [19]: 97.9 µM (inactive)
- GI50 [20]: > 100 µM (inactive)
- GI50 [21]: > 100 µM (inactive)
- GI50 [22]: > 100 µM (inactive)
- GI50 [23]: > 100 µM (inactive)
- GI50 [24]: > 100 µM (inactive)
- GI50 [25]: 68.4 µM (inactive)
- GI50 [26]: > 100 µM (inactive)
- GI50 [27]: > 100 µM (inactive)
- GI50 [28]: 63.7 µM (inactive)
- GI50 [29]: > 100 µM (inactive)
- GI50 [30]: 80 µM (inactive)
- GI50 [31]: > 100 µM (inactive)
- GI50 [32]: > 100 µM (inactive)
- GI50 [33]: > 100 µM (inactive)
- GI50 [34]: 49.3 µM (inactive)
- GI50 [35]: > 100 µM (inactive)
- GI50 [36]: > 100 µM (inactive)
- GI50 [37]: > 100 µM (inactive)
- GI50 [38]: > 100 µM (inactive)
- GI50 [39]: > 100 µM (inactive)
- GI50 [40]: > 100 µM (inactive)
- GI50 [41]: 42.5 µM (inactive)
- GI50 [42]: 22.3 µM (inactive)
- GI50 [43]: 39.6 µM (inactive)
- GI50 [44]: 25.9 µM (inactive)
- GI50 [45]: > 100 µM (inactive)
- GI50 [46]: > 100 µM (inactive)
- GI50 [47]: > 100 µM (inactive)
- GI50 [48]: > 100 µM (inactive)
- GI50 [49]: > 100 µM (inactive)
- GI50 [50]: > 100 µM (inactive)
- GI50 [51]: > 100 µM (inactive)
- GI50 [52]: > 100 µM (inactive)
- GI50 [53]: > 100 µM (inactive)
- GI50 [54]: > 100 µM (inactive)
- GI50 [55]: > 100 µM (inactive)
- GI50 [56]: > 100 µM (inactive)
- GI50 [57]: > 100 µM (inactive)

SMILES: COc1nc2ccc(Cl)c(C(O)c3ccccc3)c2nc1OC (stereo not drawn)
- GI50 [1]: 12.9 µM (inactive)
- GI50 [2]: 16.3 µM (inactive)
- GI50 [3]: 18.1 µM (inactive)
- GI50 [4]: 12.5 µM (inactive)
- GI50 [5]: 29 µM (inactive)
- GI50 [6]: 20.6 µM
- GI50 [7]: 25.8 µM (inactive)
- GI50 [8]: 12.1 µM (inactive)
- GI50 [58]: 17.1 µM (inactive)
- GI50 [9]: 10.5 µM (inactive)
- GI50 [10]: 15.6 µM (inactive)
- GI50 [11]: 26.7 µM (inactive)
- GI50 [12]: 29.9 µM (inactive)
- GI50 [13]: 26.5 µM (inactive)
- GI50 [14]: 16.2 µM (inactive)
- GI50 [15]: 30.9 µM (inactive)
- GI50 [16]: 11.5 µM (inactive)
- GI50 [17]: 6.52 µM (inactive)
- GI50 [18]: 17.2 µM (inactive)
- GI50 [19]: 14.3 µM (inactive)
- GI50 [20]: 18.2 µM (inactive)
- GI50 [21]: 32.9 µM (inactive)
- GI50 [22]: 14.9 µM (inactive)
- GI50 [23]: 18.5 µM (inactive)
- GI50 [24]: 17.6 µM (inactive)
- GI50 [25]: 15.4 µM (inactive)
- GI50 [26]: 18.6 µM (inactive)
- GI50 [27]: 35.5 µM (inactive)
- GI50 [28]: 19.2 µM (inactive)
- GI50 [29]: 26.6 µM (inactive)
- GI50 [30]: 23.4 µM (inactive)
- GI50 [32]: 18.6 µM (inactive)
- GI50 [33]: 15.7 µM (inactive)
- GI50 [34]: 24.8 µM (inactive)
- GI50 [35]: 14.1 µM (inactive)
- GI50 [36]: 37.2 µM (inactive)
- GI50 [37]: 19.7 µM (inactive)
- GI50 [38]: 18.3 µM (inactive)
- GI50 [39]: 19.8 µM (inactive)
- GI50 [40]: 29.9 µM (inactive)
- GI50 [41]: 25.3 µM (inactive)
- GI50 [42]: 33 µM (inactive)
- GI50 [43]: 29 µM (inactive)
- GI50 [44]: 29.7 µM (inactive)
- GI50 [45]: 30.2 µM (inactive)
- GI50 [46]: 20.3 µM (inactive)
- GI50 [47]: 24.9 µM (inactive)
- GI50 [48]: 22.1 µM (inactive)
- GI50 [49]: 16.5 µM (inactive)
- GI50 [50]: 17.2 µM (inactive)
- GI50 [52]: 32.3 µM (inactive)
- GI50 [53]: 17.5 µM (inactive)
- GI50 [54]: 24.1 µM (inactive)
- GI50 [55]: 23.8 µM (inactive)
- GI50 [56]: 24.6 µM (inactive)
- GI50 [57]: 12.6 µM (inactive)
